On to `CC(C)(C)c1cc(C(C)(C)C)cc(C(C)(C)C)c1`, for which the melting point – broadly, the temperature of the solid-liquid transition – came out at 71 °C.
To `CCCCCCCCc1ccc(C(Cl)=Cc2ccc(OCC)cc2)cc1` belongs 32 °C; to `Cc1nn(C)c2c(N)ncnc12`, 238 °C; to `O=c1[nH]c(=O)n(C2CCCO2)cc1F` (stereo not given), 172 °C.
The value for `CSc1sc(C(=O)O)c(-c2ccc(Cl)cc2)c1C#N` was 241 to 243 °C; that for `Cc1noc(-c2ccccc2CBr)n1` was 64 to 67 °C.
To `CC1(C)CC(=O)C(=NNc2ccccc2)C(=O)C1` belongs 148 °C.
`O=C(O)/C=C/c1ccc2ccc(=O)[nH]c2c1` gave a melting point of 330 °C.
The value for `Fc1ccc(Cc2ccc(F)cc2)cc1` was 29 to 30 °C; that for `O=Cc1ccc2occc2c1` was 37 to 38 °C.
To `O=C1OC(=O)c2c(F)ccc(F)c21` belongs 217 to 221 °C; to `O=CC=Cc1ccc([N+](=O)[O-])cc1`, 142 °C.
To `c1ccc(SCc2ccc(CN3CCOCC3)cc2)cc1` belongs 219 °C.
Regarding `CCCC(O)(CCC)C1(C)CCC(C(=O)O)C(C)(C)O1` (stereo not given), the melting point is 111 to 112 °C.
The value for `COc1ccc2nc(C)ccc2c1` was 64 °C; that for `COc1ccccc1-c1nc(CCl)no1` was 66 to 67 °C; that for `O=C1CCc2cc3c(cc2N1)NCCC3` was 235 °C.
Regarding `Cn1c(=O)c2c(ncn2CCCl)n(C)c1=O`, the melting point fell in the range of 122 to 127 °C.
To `FC(F)(F)c1nn(CN2CCN(Cn3nc(C(F)(F)F)n(N=Cc4ccc5c(c4)OCO5)c3=S)CC2)c(=S)n1N=Cc1ccc2c(c1)OCO2` belongs 156 °C; to `CCN(CC)C(=O)Nc1ccc(OCC(O)CNC(C)(C)C)c(C(C)=O)c1` (stereo not given), 110 °C; to `Cc1ccc([Si](C)(c2ccc(C)cc2)c2ccc(C)cc2)cc1`, 92 °C.
To `O=Cc1ccc(-c2nccs2)cc1` belongs 90 to 91 °C; to `c1cnc2nccnc2c1`, 143 °C.
For `COc1cc(Oc2ccc(Cl)cc2Cl)ccc1[N+](=O)[O-]`, the melting point amounted to 114 °C.
To `O=S(=O)(Cl)c1ccc(-c2cnco2)s1` belongs 80 to 82 °C; to `CC(C)(C)OC(=O)N1CCN(c2ccccc2C(=O)O)CC1`, 165 to 166 °C.
To `O=C(Nc1cc2c(cc1/C=C/c1ccccc1)CC(c1ccccc1)N2C(=O)c1ccccc1)c1ccccc1` (stereo not given) belongs 250 °C; to `COc1cc(C(C)=O)ccc1F`, 52 to 54 °C.
`O=C(O)c1c(Cl)c(Cl)c(Cl)c(Cl)c1C(=O)O` returned a melting point of 98 °C.
The value for `COC(=O)C1Cc2ccccc2C(=O)C1C(=O)OC` (stereo not given) was 88 °C.
To `Cc1ccc(C=C[N+](=O)[O-])cc1` belongs 96 to 99 °C.
The value for `COC(=O)c1c2c(c(C)c3c1CC3=O)C(=O)C2` was 168 °C; that for `CC1(C)C=C(C(N)=O)C(C)(C)N1O` was 198 to 200 °C; that for `N#Cc1ccc(C(F)(F)F)cc1Cl` was 83 °C.
Compound `CC(=O)OC1C2=C(C(=O)C(OC(C)=O)C3(CC3C)C2=O)C2(C)CCC(C)=C(C)C2C1O` (stereo not given) returned a melting point of 176 to 178 °C.
Turning to `CNC(=NO)c1cc(C(C)(C)C)c(O)c(C(C)(C)C)c1`, the melting point fell in the range of 200 to 201 °C.
The value for `CCOC(=O)c1ccc2c(c1)nnn2C` was 105 to 108 °C; that for `C[Si](C)(C)OC1(C#N)c2ccccc2CCc2ccccc2C1(C#N)O[Si](C)(C)C` (stereo not given) was 88 °C; that for `O=Cc1c(F)cc(O)cc1F` was 181 °C.
The value for `CC(=O)OC1(c2ccccc2)Cc2ccccc21` (stereo not given) was 76 °C; that for `COc1ccc(-c2csc(/C(C#N)=C\c3cccnc3)n2)cc1` was 235 °C.
Compound `CC(=O)NCCCCC(N)C(=O)O` (stereo not given) displayed a melting point of 250 °C.
Turning to `O=C1C(c2ccccc2)=C(c2ccccc2)C(c2ccccc2)=C1c1ccccc1`, the melting point lay within 217 to 222 °C.
The value for `CN1CCN(C)C(C(=O)NN)C1` (stereo not given) was 113 °C; that for `CCOC(=O)CCCCCCCCCCCCC(=O)OCC` was 28 to 31 °C.
To `O=C(O)C(O)c1ccc(F)c(F)c1` (stereo not given) belongs 94 °C; to `CC(C)(C)c1ccccc1N`, -60 °C; to `Brc1cc(Br)c(Oc2c(Br)cc(Br)c(Br)c2Br)c(Br)c1Br`, 206 °C.
To `C#CC1(O)CCC2C3CCC4=CC(O)CCC4(C)C3CCC21C` (stereo not given) belongs 204 °C.
With `Cc1cccc2c1C(=O)OC2`, the melting point came out at 86 °C.
To `ICCCCCCCCCCI` belongs 30 °C; to `CCC(C)c1cc([N+](=O)[O-])cc([N+](=O)[O-])c1OC(=O)C=C(C)C` (stereo not given), 70 °C.
To `Nc1cccc2cc3ccccc3nc12` belongs 108 °C; to `CC(=O)c1ccc(NC(=O)c2ccccc2)c(C(=O)c2ccccc2)c1`, 177 °C.
`CCC(=O)OC1CCC2C3CCC4CC(=O)C(C)CC4(C)C3CCC12C` (stereo not given) returned a melting point of 128 °C.
The value for `N#Cc1sccc1Br` was 49 °C.
Compound `C=CC=CC#N` showed a melting point of -60 °C.
The value for `O=[N+]([O-])c1ccc(Cl)cc1[N+](=O)[O-]` was 40 to 41 °C; that for `COC(=O)c1cccc(OC)c1OC` was 46 to 49 °C.
The value for `CC12CCC(C(=O)O)(OC1=O)C2(C)C` (stereo not given) was 200 °C; that for `O=C(O)c1ccc(-n2cccn2)cc1` was 269 to 270 °C.
To `CC(C)(C)C(=O)Nc1ncccc1C(=O)O` belongs 280 °C; to `CC(=O)Nc1ccc(F)cc1Cl`, 117 to 120 °C; to `Cc1ccc(C(=O)/C=C/c2ccc(-c3ccc(Cl)cc3)o2)o1`, 171 °C.
`Cc1cccnc1NC(=O)C(F)(F)C(F)(F)C(F)(F)C(F)(F)C(F)(F)C(F)(F)C(F)(F)C(F)(F)F`: the melting point is 161 °C.
The value for `Cc1ccc(S(=O)(=O)NN=Cc2coc(C=Cc3ccccc3)n2)cc1` was 177 to 179 °C; that for `CNc1cc(=O)oc2ccccc12` was 198 °C.
Compound `c1ccc(SSc2ccccn2)nc1` had a melting point of 58 °C.
`CCc1cc2c(s1)N(C)C(=O)CN=C2c1ccccc1Cl`: the melting point turned out to be 119 °C.
To `CCC1CC(NC(=O)CNC(=O)CBr)C(C)(C)N1O` (stereo not given) belongs 145 to 147 °C.
The value for `O=Cc1ccc(N2CCOCC2)nc1` was 88 to 89 °C; that for `O=[N+]([O-])c1ccccc1-c1ccccc1[N+](=O)[O-]` was 126 °C; that for `N#C/C(=N/Nc1cccc(C(F)(F)F)c1)c1nc2ccccc2c(=O)[nH]1` was 238 °C.
To `O=C(Nc1ccccc1)c1cccnc1` belongs 120 °C; to `CCOC(=O)c1cc(C(=O)OCC)[nH]n1`, 51 to 55 °C.
`Cc1ccc(CO)cc1F`: the melting point amounted to 35 °C.
With `CSc1ccc(Br)cc1`, the melting point was determined as 38.5 °C.
To `O=C(Cl)c1ccc(-c2ccccn2)s1` belongs 140 to 141 °C; to `O=C(O)c1cccc2cccnc12`, 187 °C.
The compound `COC(=O)c1ccc(C(=O)O)cc1[N+](=O)[O-]` yielded a melting point of 175 °C.
To `Cc1ccc2cc3nc(C)ccc3cc2n1` belongs 237 to 238 °C; to `FCC(F)F`, -84 °C; to `COc1ccccc1F`, -39 °C.
To `N#Cc1ccc(N)c(Cl)c1` belongs 101 °C; to `C#CC1(OC(C)=O)CCC2C3CCC4=CC(=NO)CCC4C3CCC21CC` (stereo not given), 216 °C; to `CCCCCCCCC=CCCCCCCCC(=O)OCC(O)CO` (stereo not given), 35 °C.
The value for `CCCCCCCCSC(=O)Oc1cc(Cl)nnc1-c1ccccc1` was 27 °C; that for `S=c1[nH]c2ncccc2o1` was 243 to 246 °C; that for `N=C(N)N(c1ccccc1)c1ccccc1` was 150 °C.
`NCC[C@H](O)C(=O)O` gave a melting point of 200 to 203 °C.
The value for `CC(=O)OCC1OC(n2ncc(=O)[nH]c2=O)C(OC(C)=O)C1OC(C)=O` (stereo not given) was 99 to 101 °C; that for `N#Cc1sc2c(=O)c3ccccc3c(=O)c=2sc1C#N` was 225 °C; that for `COc1ccc2c(c1)CCC1C2CCC2(C)C(=O)C(Cl)CC12` (stereo not given) was 180 °C.
The value for `Clc1ccc(C(Cn2ccnc2)OCc2csc3c(Cl)cccc23)c(Cl)c1` (stereo not given) was 146 °C.
To `COC(=O)c1ccc(O)c(N)c1` belongs 143 °C.
Turning to `Cc1ccc(C(=O)O)cc1C(F)(F)F`, the melting point is 177 °C.
To `C#CCOc1cc(-n2nc3n(c2=O)CCCC3)c(Cl)cc1Cl` belongs 168 °C; to `Clc1cncc(Cl)c1Cl`, 72 °C.
Turning to `CC(=O)c1ccc(CCc2ccccc2)cc1`, the melting point was in the range of 68 to 70 °C.
To `NC(=S)c1ccncc1` belongs 201 °C.
Compound `FCc1ccccc1` yielded a melting point of -35 °C.
The value for `CC(C)(C)OC(=O)N[C@@H](Cc1ccc(Cl)cc1)C(=O)O` was 110 °C; that for `O=C(O)CCc1cc(Br)c(O)c(Br)c1` was 108 to 110 °C.
The value for `CCc1ssc(=O)c1-c1ccccc1` was 82 °C.
The value for `Nc1nc(N)c2nc[nH]c2n1` was 302 °C.
Turning to `CCCCCCCCCCCCCCCCCCOO`, the melting point amounted to 49.5 °C.
The value for `CCCCCCCCCCC(=O)OCC(COC(=O)CCCCCCCCCC)OC(=O)CCCCCCCCCC` was 24 to 32 °C.
To `CC(C)(C)OC(=O)N[C@@H](Cc1c[nH]c2ccccc12)C(=O)O` belongs 134 to 139 °C; to `FCC(F)(F)F`, -101 °C.
Take `CC(=O)Nc1ccc(-c2ccc(NC(C)=O)cc2NC(C)=O)c(NC(C)=O)c1`: the melting point was 283 °C.

The values above are taken from a melting point compilation (Tetko et al.).
